Consider 24 compounds from patent publication US20110178104A1, “Anti-Heparin Compounds” (POLYMEDIX INC., priority 2010, published 2011).

Structures are written as SMILES. Read-outs that look alike come from different tables or passages of the source.

The test system of one assay is enoxaparin (ENOX). As to the kind of experiment: FXa chromogenic assay (absence of plasma), enoxaparin.
The subject of the next assay is fondaparinux (FONDAPX). As to the kind of experiment: FXa chromogenic assay (absence of plasma), fondaparinux.
In assay [1] the test system is unfractionated heparin (UFH). As to the kind of experiment: aPTT clotting assay, UFH 0.2 U/mL in plasma (Example 7). It is filed as biochemical. How it is done: aPTT clotting Assay. Unfractionated heparin was mixed with plasma at a final concentration of 0.2 U/mL. […] The ACL Elite Hemostasis analyzer (Beckman Coulter™) was used to add aPTT reagent (HemosIL SynthASil) to supplemented plasma. Clotting was initiated by addition of CaCl2 and time to clot was recorded.

Where [2] appears, read: enoxaparin 0.1 μg/mL, absence of plasma.
Where [3] appears, read: fondaparinux 0.02 μg/mL, absence of plasma.

With `COc1ccc(NC(=O)[C@@H](CCCNC(=N)N)NC(=O)c2cc(NC(=O)[C@@H](CCCNC(=N)N)NC(=O)c3cc(NC(=O)[C@@H](CCCNC(=N)N)NC(=O)c4cc(NC(=O)[C@H](N)CC(N)=O)ccc4OC)ccc3OC)ccc2OC)cc1C(N)=O` [Compound 72], the “ENOX (FXa) EC50” value with enoxaparin (ENOX) (setting [2]) amounted to 0.22 µg/mL. Besides, the “FONDAPX (FXa) EC50” value in the assay on fondaparinux (FONDAPX) (setting [3]) was determined as 1.22 µg/mL. For the same compound, the “UFH (aPTT) EC50” value in assay [1] (UFH 0.2 U/mL in plasma) stood at 2.11 µg/mL.
The like results for `COc1ccc(NC(=O)[C@H](CCCCN)NC(=O)c2cc(NC(=O)[C@H](CCCCN)NC(=O)c3cc(NC(=O)[C@H](CCCCN)NC(=O)c4cc(NC(=O)[C@@H](N)CCCCN)ccc4OC)ccc3OC)ccc2OC)cc1C(=O)NCC(=O)O` [Compound 107] were, in that order, 0.498 µg/mL, 6.961 µg/mL and 1.34 µg/mL.
With `COc1ccc(NC(=O)[C@@H](CCCNC(N)=O)NC(=O)c2cc(NC(=O)[C@@H](CCCNC(=N)N)NC(=O)c3cc(NC(=O)[C@@H](CCCNC(N)=O)NC(=O)c4cc(NC(=O)[C@H](N)CCCNC(=N)N)ccc4OC)ccc3OC)ccc2OC)cc1C(N)=O` [Compound 47], in the assay with enoxaparin (ENOX), the “ENOX (FXa) EC50” value came out at 0.36 µg/mL. Besides, the “FONDAPX (FXa) EC50” value in the assay with fondaparinux (FONDAPX) stood at 6.52 µg/mL. In addition, in assay [1], the “UFH (aPTT) EC50” value came out at 3.23 µg/mL.
As for `COc1ccc(NC(=O)[C@H](CCCCN)NC(=O)c2cc(NC(=O)[C@H](CCCCN)NC(=O)c3cc(NC(=O)[C@H](CCCCN)NC(=O)c4cc(NC(=O)[C@@H](N)CCCCN)ccc4OC)ccc3OC)ccc2OC)cc1C(=O)NCCCCCC(=O)O` [Compound 143], the “ENOX (FXa) EC50” value with enoxaparin (ENOX) (setting [2]) was found to be 1.011 µg/mL. In addition, the “FONDAPX (FXa) EC50” value with fondaparinux (FONDAPX) (setting [3]) turned out to be 12.700 µg/mL. Moreover, in assay [1] (UFH 0.2 U/mL in plasma), the “UFH (aPTT) EC50” value was found to be 2.96 µg/mL.
In the case of `N=C(N)NCCC[C@@H](N)C(=O)Nc1cccc(C(=O)N[C@H](CCCNC(=N)N)C(=O)Nc2cccc(C(=O)N[C@H](CCCNC(=N)N)C(=O)Nc3cccc(C(=O)N[C@H](CCCNC(=N)N)C(=O)Nc4cccc(C(N)=O)n4)n3)n2)n1` [Compound 65], the “ENOX (FXa) EC50” value in the assay with enoxaparin (ENOX) (setting [2]) worked out at 16.29 µg/mL. Further, the “UFH (aPTT) EC50” value in assay [1] (UFH 0.2 U/mL in plasma) is 4.48 µg/mL.
In the case of `N=C(N)NCCC[C@@H](N)C(=O)Nc1ccc(Cl)c(C(=O)N[C@H](CCCNC(=N)N)C(=O)Nc2ccc(Cl)c(C(=O)N[C@H](CCCNC(=N)N)C(=O)Nc3ccc(Cl)c(C(=O)N[C@H](CCCNC(=N)N)C(=O)Nc4ccc(Cl)c(C(N)=O)c4)c3)c2)c1` [Compound 26], the “ENOX (FXa) EC50” value with enoxaparin (ENOX) (setting [2]) was 3.93 µg/mL. For the same compound, the “FONDAPX (FXa) EC50” value in the assay on fondaparinux (FONDAPX) (setting [3]) is 36.65 µg/mL. For the same compound, the “UFH (aPTT) EC50” value in assay [1] (UFH 0.2 U/mL in plasma) was 4.26 µg/mL.
As to `COc1ccc(NC(=O)[C@@H](CCCNC(=N)N)NC(=O)c2cc(NC(=O)[C@@H](CCCNC(=N)N)NC(=O)c3cc(NC(=O)[C@@H](CCCNC(=N)N)NC(=O)c4cc(NC(=O)[C@H](N)CCCNC(=N)N)ccc4OC)ccc3OC)ccc2OC)cc1C(=O)NCCCCCN` [Compound 41], in the assay with enoxaparin (ENOX) (setting [2]), the “ENOX (FXa) EC50” value was found to be 0.16 µg/mL. The “FONDAPX (FXa) EC50” value in the assay on fondaparinux (FONDAPX) (setting [3]) was found to be 3.85 µg/mL. Moreover, the “UFH (aPTT) EC50” value in assay [1] (UFH 0.2 U/mL in plasma) is 1.65 µg/mL.
The like results for `COc1ccc(NC(=O)[C@H](CCCCN)NC(=O)c2cc(NC(=O)[C@@H](N)CCCCN)ccc2OC)cc1C(=O)N[C@@H](CCCCN)C(=O)Nc1ccc(OC)c(C(=O)N[C@@H](CCCCN)C(=O)Nc2ccc(SC)c(C(N)=O)c2)c1` [Compound 134] were, in that order, 1.829 µg/mL, “inactive” and 2.84 µg/mL.
As to `COc1ccc(NC(=O)[C@H](CCCNC(=N)N)NC(=O)c2cc(NC(=O)[C@H](CCCNC(=N)N)NC(=O)c3cc(NC(=O)[C@H](C)NC(=O)CCCCNC(=N)N)ccc3OC)ccc2OC)cc1C(N)=O` [Compound 120], in the assay with enoxaparin (ENOX) (setting [2]), the “ENOX (FXa) EC50” value came out at 1.36 µg/mL. In addition, the “FONDAPX (FXa) EC50” value with fondaparinux (FONDAPX) (setting [3]) amounted to 5.96 µg/mL. For the same compound, in assay [1] (UFH 0.2 U/mL in plasma), the “UFH (aPTT) EC50” value was 9.62 µg/mL.
The like results for `COc1ccc(NC(=O)[C@@H](CCCCN)NC(=O)c2cc(NC(=O)[C@@H](CCCNC(=N)N)NC(=O)c3cc(NC(=O)[C@@H](CCCCN)NC(=O)c4cc(NC(=O)[C@H](N)CCCNC(=N)N)ccc4OC)ccc3OC)ccc2OC)cc1C(N)=O` [Compound 43] were, in that order, 0.36 µg/mL, 4.44 µg/mL and 2.33 µg/mL.
The like results for `COc1ccc(NC(=O)[C@H](CCCCN)NC(=O)c2cc(NC(=O)[C@H](CCCCN)NC(=O)c3cc(NC(=O)[C@H](CCCCN)NC(=O)c4cc(NC(=O)[C@@H](N)Cc5c[nH]c6ccccc56)ccc4OC)ccc3OC)ccc2OC)cc1C(N)=O` [Compound 101] were, in that order, 0.8434 µg/mL, 4.158 µg/mL and “approx 16 μg/mL”.
The like results for `COc1ccc(NC(=O)[C@H](CCCCN)NC(=O)c2cc(NC(=O)[C@H](CCCCN)NC(=O)c3cc(NC(=O)[C@H](CCCCN)NC(=O)c4cc(C(=O)NCCCCCN)c(OC)cc4OC)ccc3OC)ccc2OC)cc1C(N)=O` [Compound 102] were, in that order, 0.3328 µg/mL, 2.938 µg/mL and 3.32 µg/mL.
Turning to `COc1ccc(NC(=O)[C@H](CCCCCN)NC(=O)c2cc(NC(=O)[C@H](CCCCCN)NC(=O)c3cc(NC(=O)[C@H](CCCCCN)NC(=O)c4cc(NC(=O)[C@@H](N)CCCCCN)ccc4OC)ccc3OC)ccc2OC)cc1C(N)=O` [Compound 98], the “ENOX (FXa) EC50” value in the assay with enoxaparin (ENOX) (setting [2]) turned out to be 0.1731 µg/mL. Besides, the “FONDAPX (FXa) EC50” value in the assay with fondaparinux (FONDAPX) (setting [3]) is “inactive”. Moreover, the “UFH (aPTT) EC50” value in assay [1] (UFH 0.2 U/mL in plasma) worked out at 3.14 µg/mL.
The like results for `COc1cc(OC)c(C(=O)N[C@H]2CC[C@@H](NC(=O)c3cc(C(=O)NCCN(C)C)c(OCCNC(=N)N)cc3OCCNC(=N)N)CC2)cc1C(=O)N[C@H]1CC[C@@H](NC(=O)c2cc(C(=O)NCCN(C)C)c(OCCNC(=N)N)cc2OCCNC(=N)N)CC1` [Compound 105] were, in that order, 2.07 µg/mL, more than 20 µg/mL and “Inactive”.
The like results for `COc1ccc(NC(=O)[C@H](CCCCN)NC(=O)c2cc(NC(=O)[C@H](CCCCN)NC(=O)c3cc(NC(=O)[C@H](CCCCN)NC(=O)c4cc(NC(=O)[C@@H](N)CCCCN)ccc4OC)ccc3OC)ccc2OC)cc1C(=O)N[C@@H](C)C(=O)O` [Compound 109] were, in that order, 0.6089 µg/mL, 9.853 µg/mL and 2.23 µg/mL.
The like results for `COc1ccc(NC(=O)[C@@H](CCCNC(=N)N)NC(=O)c2cc(NC(=O)[C@@H](CCCNC(=N)N)NC(=O)c3cc(NC(=O)[C@@H](CCCNC(=N)N)NC(=O)c4cc(NC(=O)[C@H](N)CCCNC(=N)N)ccc4OC)ccc3OC)ccc2OC)cc1C(N)=O` [Compound 135] were, in that order, 0.1581 µg/mL, 0.7596 µg/mL and 2.79 µg/mL.
For the compound `COc1ccc(NC(=O)[C@@H](CCCNC(=N)N)NC(=O)c2cc(NC(=O)[C@@H](CCCNC(=N)N)NC(=O)c3cc(NC(=O)[C@@H](CCCNC(=N)N)NC(=O)c4cc(NC(=O)CCCCNC(=N)N)ccc4OC)ccc3OC)ccc2OC)cc1C(N)=O` [Compound 50], the “ENOX (FXa) EC50” value in the assay with enoxaparin (ENOX) (setting [2]) was 0.22 µg/mL. Also, the “FONDAPX (FXa) EC50” value with fondaparinux (FONDAPX) (setting [3]) is 1.12 µg/mL. In assay [1] (UFH 0.2 U/mL in plasma), the “UFH (aPTT) EC50” value was 1.67 µg/mL.
The like results for `COc1ccc(NC(=O)[C@H](CCCCN)NC(=O)c2cc(NC(=O)[C@@H](N)CCCCN)ccc2OC)cc1C(=O)N[C@@H](CCCCN)C(=O)Nc1ccc(OC)c(C(=O)N[C@@H](CCCCN)C(=O)Nc2ccc(OC)c(C(=O)N[C@H](C(=O)O)C(C)C)c2)c1` [Compound 114] were, in that order, 0.9758 µg/mL, 12.56 µg/mL and 3.00 µg/mL.
The like results for `COc1ccc(NC(=O)[C@H](CCCNC(=N)N)NC(=O)c2cc(NC(=O)[C@H](CCCNC(=N)N)NC(=O)c3cc(NC(=O)[C@H](CCCNC(=N)N)NC(=O)c4cc(NC(=O)[C@@H](N)CCCNC(=N)N)ccc4OC)ccc3OC)ccc2OC)cc1C(N)=O` [Compound 7] were, in that order, 0.21 µg/mL, 1.49 µg/mL and 1.84 µg/mL.
The like results for `COc1ccc(NC(=O)[C@H](CCCCN)NC(=O)c2cc(NC(=O)[C@H](CCCCN)NC(=O)c3cc(NC(=O)[C@H](CCCCN)NC(=O)c4cc(NC(=O)[C@@H](N)CCCCN)ccc4OC)ccc3OC)ccc2OC)cc1C(=O)N[C@@H](Cc1ccccc1)C(=O)O` [Compound 110] were, in that order, 0.694 µg/mL, 2.951 µg/mL and 2.31 µg/mL.
As for `N=C(N)NCCCCC(=O)Nc1cc(C(F)(F)F)cc(NC(=O)c2cc(C(=O)Nc3cc(C(F)(F)F)cc(NC(=O)CCCCNC(=N)N)c3SCCN)ncn2)c1SCCN` [Compound 6], the “ENOX (FXa) EC50” value in the assay on enoxaparin (ENOX) (setting [2]) was 0.57 µg/mL. The “FONDAPX (FXa) EC50” value with fondaparinux (FONDAPX) (setting [3]) is “inactive”. In addition, the “UFH (aPTT) EC50” value in assay [1] (UFH 0.2 U/mL in plasma) turned out to be 29.11 µg/mL.
Turning to `COc1ccc(NC(=O)[C@@H](CCCN)NC(=O)c2cc(NC(=O)[C@@H](CCCNC(=N)N)NC(=O)c3cc(NC(=O)[C@@H](CCCNC(=N)N)NC(=O)c4cc(NC(=O)[C@H](N)CCCN)ccc4OC)ccc3OC)ccc2OC)cc1C(N)=O` [Compound 30], the “ENOX (FXa) EC50” value with enoxaparin (ENOX) was 0.28 µg/mL. In addition, in the assay on fondaparinux (FONDAPX), the “FONDAPX (FXa) EC50” value was determined as 3.99 µg/mL. Also, in assay [1], the “UFH (aPTT) EC50” value was 1.52 µg/mL.
`[2H]C([2H])(CN)C([2H])([2H])C[C@H](N)C(=O)Nc1ccc(OC)c(C(=O)N[C@@H](CCCCN)C(=O)Nc2ccc(OC)c(C(=O)N[C@@H](CCCCN)C(=O)Nc3ccc(OC)c(C(=O)N[C@@H](CCCCN)C(=O)Nc4ccc(OC)c(C(N)=O)c4)c3)c2)c1` [Compound 121]: the “ENOX (FXa) EC50” value in the assay with enoxaparin (ENOX) (setting [2]) was 0.4289 µg/mL. Moreover, in the assay with fondaparinux (FONDAPX) (setting [3]), the “FONDAPX (FXa) EC50” value came to 8.293 µg/mL. Also, the “UFH (aPTT) EC50” value in assay [1] (UFH 0.2 U/mL in plasma) was 7.48 µg/mL.
In the case of `COc1cc(OC)c(C(=O)N[C@H]2CC[C@H](NC(=O)c3cc(C(=O)NCCN(C)C)c(OCCCCCN)cc3OCCCCCN)CC2)cc1C(=O)NCCN(C)C` [Compound 86], in the assay on fondaparinux (FONDAPX) (setting [3]), the “FONDAPX (FXa) EC50” value is more than 90 µg/mL. Moreover, in assay [1] (UFH 0.2 U/mL in plasma), the “UFH (aPTT) EC50” value was “inactive”.
